Reference: patent US20260083865A1, “PROSTATE SPECIFIC MEMBRANE ANTIGEN (PSMA) LIGANDS AND USE THEREOF” (priority 2022, published 2026)
Where two headings read alike, the source gives them in different places. Numbered stars: 1 amine (or outer) side, 2 acyl side, 3 side chain; on linkers, the order of the positions; unused ones are H or OH. Bridge positions count the residues as written; N and C are the ends. Square brackets hold non-standard residues; d marks the D form. Peptide text beside a SMILES is read from it. * marks the point of attachment. X9 = C=C(N([C@@H](Cc1ccc(Cl)cc1)C(=O)[*:2])[*:1])C(C)(C)NC(=O)[C@@H](NC(C)=O)[C@@H](C)O; DOTA = O=C(O)CN1CCN(CC(=O)O)CCN(CC(=O)*)CCN(CC(=O)O)CC1; Phe(4-Cl) = N[C@@H](Cc1ccc(Cl)cc1)C(=O)O; 1Nal = N[C@@H](Cc1cccc2ccccc12)C(=O)O; Arg(Me) = CNC(=N)NCCC[C@H](N)C(=O)O; X1 = O=C(CC1CCN([*:1])CC1)[*:2]; Cit = NC(=O)NCCC[C@H](N)C(=O)O; Lys(Me) = CNCCCC[C@H](N)C(=O)O; Tle = CC(C)(C)[C@H](N)C(=O)O; 4Amb = NCc1ccc(C(=O)O)cc1; Aib = CC(C)(N)C(=O)O; βAla = NCCC(=O)O

What was measured:
[1] = biological target: T1, PSMA-expressing C4-2 cells (Homo sapiens, UniProt Q04609); test: FACS binding assay (competition with 50 nM PSM-0183); conditions: C4-2 cells, read-out: pIC50 [C4-2] CAT (converted)
T1 construct: PSMA-expressing C4-2 cells (ATCC, Cat. No. CRL-3314) were cultured in RPMI-1640; host or cells: C4-2 cells
T1 sequence (Q04609 whole entry): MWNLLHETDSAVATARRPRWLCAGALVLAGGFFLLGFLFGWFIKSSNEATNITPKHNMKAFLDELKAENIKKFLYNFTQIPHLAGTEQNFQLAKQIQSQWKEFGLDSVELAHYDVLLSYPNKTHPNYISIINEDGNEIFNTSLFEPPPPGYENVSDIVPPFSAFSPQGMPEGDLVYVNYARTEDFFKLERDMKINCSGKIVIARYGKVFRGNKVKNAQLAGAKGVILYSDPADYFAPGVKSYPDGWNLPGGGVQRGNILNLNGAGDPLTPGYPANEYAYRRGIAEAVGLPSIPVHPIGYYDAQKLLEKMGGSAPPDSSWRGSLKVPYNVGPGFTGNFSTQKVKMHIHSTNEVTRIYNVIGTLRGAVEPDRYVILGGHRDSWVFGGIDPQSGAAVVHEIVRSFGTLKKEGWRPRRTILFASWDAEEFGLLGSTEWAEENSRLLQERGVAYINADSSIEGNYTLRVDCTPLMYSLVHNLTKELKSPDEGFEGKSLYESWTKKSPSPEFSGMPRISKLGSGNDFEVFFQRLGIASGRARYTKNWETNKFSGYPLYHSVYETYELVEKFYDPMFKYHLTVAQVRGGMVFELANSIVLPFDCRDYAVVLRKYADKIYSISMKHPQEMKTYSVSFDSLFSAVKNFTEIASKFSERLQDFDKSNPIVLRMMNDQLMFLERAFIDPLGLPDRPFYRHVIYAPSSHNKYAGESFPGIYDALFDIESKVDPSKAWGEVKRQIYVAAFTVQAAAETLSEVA
Method in brief: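 C4-2 cells were incubated 1 h at 4 °C with 50 nM AF488-labelled peptide PSM-0183 plus increasing test compound concentrations, then washed twice in ice-cold buffer. Median fluorescence in the AF488 channel was read by flow cytometry. IC50/pIC50 was derived by 4PL fitting of MFI versus concentration.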

[2] = biological target: T2, Fc-fusion protein of human PSMA (hPSMA-Fc) (Homo sapiens, UniProt Q04609); test: Surface plasmon resonance assay (Biacore T200, single cycle kinetic); type: binding; conditions: read-out: pKD CAT (converted)
T2 construct: purchased Acro Biosystems PSA-H5264
T2 sequence (Q04609 44-750 limits assumed): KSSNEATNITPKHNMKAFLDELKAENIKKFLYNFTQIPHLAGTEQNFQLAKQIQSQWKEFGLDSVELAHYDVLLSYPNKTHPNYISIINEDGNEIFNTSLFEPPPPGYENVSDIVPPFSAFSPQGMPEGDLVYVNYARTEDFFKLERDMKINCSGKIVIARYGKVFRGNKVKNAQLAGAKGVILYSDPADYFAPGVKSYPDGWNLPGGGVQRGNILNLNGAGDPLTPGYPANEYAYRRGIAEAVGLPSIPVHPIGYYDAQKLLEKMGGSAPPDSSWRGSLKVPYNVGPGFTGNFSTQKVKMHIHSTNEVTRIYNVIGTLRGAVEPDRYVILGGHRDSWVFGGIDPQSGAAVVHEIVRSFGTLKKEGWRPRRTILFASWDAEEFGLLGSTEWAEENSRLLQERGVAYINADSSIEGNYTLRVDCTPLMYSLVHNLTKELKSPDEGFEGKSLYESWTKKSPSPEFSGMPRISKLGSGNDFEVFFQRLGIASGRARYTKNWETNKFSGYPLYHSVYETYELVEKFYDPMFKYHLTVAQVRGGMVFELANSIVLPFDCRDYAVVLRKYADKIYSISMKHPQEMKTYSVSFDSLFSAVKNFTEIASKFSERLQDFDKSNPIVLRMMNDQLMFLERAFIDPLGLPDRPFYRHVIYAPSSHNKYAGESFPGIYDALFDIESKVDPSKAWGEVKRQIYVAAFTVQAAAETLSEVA
Method in brief: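 hPSMA-Fc was captured (~1000 RU) on an Fc-binding-peptide CM5 chip, and compounds were run in single cycle kinetic mode at 25° C in HBST with 0.1% DMSO. Double-blank-corrected sensorgrams were fitted to a 1:1 Langmuir model to give KD, reported as pKD.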

[3] = FACS binding, competition with 50 nM PSM-0183, category
[4] = SPR, hPSMA-Fc, single cycle kinetic, 25° C., category

| Compound | IC50 [1, 3] [nM] | Kd [2, 4] [nM] | further results |
| --- | --- | --- | --- |
| CC(=O)N[C@H](C(=O)NC(C)(C)C(=O)N[C@@H](Cc1cccc2ccccc12)C(=O)N[C@H]1CSSC[C@@H](C(=O)N[C@H](C(=O)N[C@H](C(=O)N[C@@H](CC(=O)O)C(N)=O)[C@@H](C)O)C(C)(C)C)NC(=O)[C@H](CC(N)=O)NC(=O)C(C)(C)NC(=O)[C@H](CCCNC(=N)N)NC(=O)[C@H](CCCCN)NC1=O)[C@@H](C)O [PSM-0249, Ac-Thr-Aib-1Ni-[Cys-Lys-Arg-Aib-Asn-Cys]-Tle-Thr-Asp-NH2] (Ac-T[Aib][1Nal]CKR[Aib]NC[Tle]TD-NH2; disulfide 4-9) | < 200 | < 12.6 |  |
| CCCC[C@H](NC(=O)[C@@H]1CSSC[C@H](NC(=O)[C@H](Cc2ccccc2)NC(=O)[C@H](C)NC(=O)[C@@H](NC(C)=O)[C@@H](C)O)C(=O)N[C@@H](CCCCN)C(=O)N[C@@H](CCCNC(=N)N)C(=O)N[C@@H](C)C(=O)N[C@@H](CC(N)=O)C(=O)N1)C(=O)N[C@@H](C(=O)N[C@H](CC(=O)O)C(N)=O)[C@H](C)O [PSM-0182, Ac-Thr-Ala-Phe-[Cys-Lys-Arg-Ala-Asn-Cys]-Nle-thr-Asp-NH2] | 1260 to 3160 | > 501 |  |
| CC(=O)N[C@H](C(=O)NC(C)(C)C(=O)N[C@@H](Cc1ccc(Cl)cc1)C(=O)N[C@H]1CSSC[C@@H](C(=O)N[C@H](C(=O)N[C@H](C(N)=O)[C@@H](C)O)C(C)(C)C)NC(=O)[C@H](CC(N)=O)NC(=O)C(C)(C)NC(=O)[C@H](CCCNC(N)=O)NC(=O)[C@H](CCCCN)NC1=O)[C@@H](C)O [PSM-0179, Ac-Thr-Aib-Pcf-[Cys-Lys-Cit-Aib-Asn-Cys]-Tle-Thr-NH2] (Ac-T[Aib][Phe(4-Cl)]CK[Cit][Aib]NC[Tle]T-NH2; disulfide 4-9) | < 200 | < 12.6 |  |
| C=C(N[C@@H](Cc1ccc(Cl)cc1)C(=O)N[C@H]1CSSC[C@@H](C(=O)N[C@H](C(=O)N[C@H](C(N)=O)[C@@H](C)O)C(C)(C)C)NC(=O)[C@H](CCCNC(=N)N)NC(=O)C(C)(C)NC(=O)[C@H](CCCNC(N)=O)NC(=O)[C@H](CCCCN)NC1=O)C(C)(C)NC(=O)[C@@H](NC(C)=O)[C@@H](C)O [PSM-0240, Ac-Thr-Aib-Pcf-[Cys-Lys-Cit-Aib-Arg-Cys]-Tle-Thr-NH2] (H-[X9]CK[Cit][Aib]RC[Tle]T-NH2; disulfide 2-7) | < 200 | < 12.6 |  |
| CC(=O)N[C@H](C(=O)NC(C)(C)C(=O)N[C@@H](Cc1ccccc1)C(=O)N[C@H]1CSSC[C@@H](C(=O)N[C@H](C(=O)N[C@H](C(N)=O)[C@@H](C)O)C(C)(C)C)NC(=O)CNC(=O)C(C)(C)NC(=O)[C@H](CCCNC(=N)N)NC(=O)[C@H](CCCCN)NC1=O)[C@@H](C)O [PSM-0479, Ac-Thr-Aib-Phe-[Cys-Lys-Arg-Aib-Gly-Cys]-Tle-Thr-NH2] (Ac-T[Aib]FCKR[Aib]GC[Tle]T-NH2; disulfide 4-9) |  |  | IC50 ([1]; pIC50 category of FACS binding): < 200 nM; Kd ([2]; pKD category for PSMA SPR activity assay, hPSMA-Fc, 25° C.): < 12.6 nM |
| CC(C)(NC(=O)c1ccc(CNC(=O)CN2CCN(CC(=O)O)CCN(CC(=O)O)CCN(CC(=O)O)CC2)cc1)C(=O)N[C@@H](Cc1ccccc1)C(=O)N[C@H]1CSSC[C@@H](C(=O)N[C@H](C(=O)NCCC(N)=O)C(C)(C)C)NC(=O)[C@H](CC(N)=O)NC(=O)C(C)(C)NC(=O)[C@H](CCCNC(=N)N)NC(=O)[C@H](CCCCN)NC1=O [PSM-0574, DOTA-Pamb-Aib-Phe-[Cys-Lys-Arg-Aib-Asn-Cys]-Tle-Bal-NH2] ({DOTA-4Amb}-[Aib]FCKR[Aib]NC[Tle][βAla]-NH2; disulfide 3-8) |  |  | IC50 ([1]; FACS binding, category): < 200 nM; Kd ([2]; PSMA SPR assay, category): 12.6 to 126 nM |
| CNCCCC[C@@H]1NC(=O)[C@@H](NC(=O)[C@H](Cc2ccc(Cl)cc2)NC(=O)C(C)(C)NC(=O)[C@@H](NC(=O)CC2CCN(C(=O)CN3CCN(CC(=O)O)CCN(CC(=O)O)CCN(CC(=O)O)CC3)CC2)[C@@H](C)O)CSSC[C@@H](C(=O)O)NC(=O)[C@H](CC(N)=O)NC(=O)C(C)(C)NC(=O)[C@H](CCCNC(=N)NC)NC1=O [PSM-0594, DOTA-Cmp-Thr-Aib-Pcf-[Cys-Lys(Me)-Arg(Me)-Aib-Asn-Cys]-OH] ({DOTA}-[X1]T[Aib][Phe(4-Cl)]C[Lys(Me)][Arg(Me)][Aib]NC-OH; disulfide 5-10) |  |  | IC50 ([1]; FACS binding, category): 1260 to 3160 nM; Kd ([2]; PSMA SPR assay, category): > 501 nM |
